The source made the active and inactive calls. No cut-off for these calls is given here.
Experiments:
[1] = Cmax in rat at 95 mg/kg, po; assay type: ADME, organism-based; set-up: dose 95 mg/kg, route oral; conditions: in vivo
[2] = Tmax in mouse at 26 mg/kg, po; assay type: ADME, organism-based; conditions: in vivo
DU-145 = test: Antiproliferative activity against human DU145 cells; assay type: functional, cell-based
[3] = molecular target: Phosphatidylinositol 4,5-bisphosphate 3-kinase catalytic subunit alpha isoform (Homo sapiens, UniProt P42336); test: Inhibition of PI3K alpha (unknown origin)
MCF7 = test: Antiproliferative activity against human MCF7; assay type: functional, cell-based
[4] = Half-life in rat at 83 mg/kg, po; assay type: ADME, organism-based; conditions: in vivo
[5] = Cmax in mouse at 10.4 mg/kg, iv; assay type: ADME, organism-based; set-up: dose 10.4 mg/kg, route intravenous; conditions: in vivo
[6] = Volume of distribution at steady state in mouse at 10.4 mg/kg, iv; assay type: ADME, organism-based; conditions: in vivo, read-out: Vdss
NCI-H1650 [7] = test: Additive antiproliferative activity against human NCI-H1650 cells harboring EGFR E746-A750del mutant in presence of gemcitabine; assay type: functional, cell-based
NCI-H1395 [8] = test: Antiproliferative activity against human NCI-H1395 cells; assay type: functional, cell-based
[9] = Cmax in dog at 30 mg/kg, po; assay type: ADME, organism-based, Canis lupus familiaris; set-up: dose 30 mg/kg, route oral; conditions: in vivo
[10] = Half-life in rat at 3 mg/kg, po; assay type: ADME, organism-based; conditions: in vivo
HCT-116 = test: Antiproliferative activity against human HCT116; assay type: functional, cell-based
A549 [11] = test: Synergistic antiproliferative activity against human A549 cells harboring KRAS G12S mutant in presence of erlotinib; assay type: functional, cell-based
NCI-H1395 [12] = test: Additive antiproliferative activity against human NCI-H1395 cells harboring LKB1 mutant in presence of gemcitabine; assay type: functional, cell-based
[13] = Clearance in mouse at 2.8 mg/kg, iv; assay type: ADME, organism-based; conditions: in vivo
[14] = Cmax in dog at 0.45 mg/kg, po; assay type: ADME, organism-based, Canis lupus familiaris; set-up: dose 0.45 mg/kg, route oral; conditions: in vivo
[15] = Half-life in mouse at 8.7 mg/kg, po; assay type: ADME, organism-based; conditions: in vivo
[16] = Cmax in rat at 31 mg/kg, po; assay type: ADME, organism-based; set-up: dose 31 mg/kg, route oral; conditions: in vivo
[17] = Cmax in rat at 0.8 mg/kg, iv; assay type: ADME, organism-based; set-up: dose 0.8 mg/kg, route intravenous; conditions: in vivo
[18] = Tmax in rat at 4.1 mg/kg, po; assay type: ADME, organism-based; conditions: in vivo
NCI-H292 [19] = test: Additive antiproliferative activity against human NCI-H292 cells in presence of gemcitabine; assay type: functional, cell-based
[20] = Tmax in rat at 83 mg/kg, po; assay type: ADME, organism-based; conditions: in vivo
NCI-H292 [21] = test: Additive antiproliferative activity against human NCI-H292 cells in presence of erlotinib; assay type: functional, cell-based
[22] = Tmax in rat at 95 mg/kg, po; assay type: ADME, organism-based; conditions: in vivo
[23] = Cmax in dog at 10 mg/kg, po; assay type: ADME, organism-based, Canis lupus familiaris; set-up: dose 10 mg/kg, route oral; conditions: in vivo
BT-474 = test: Antiproliferative activity against human BT474; assay type: functional, cell-based
[24] = Cmax in mouse at 26 mg/kg, po; assay type: ADME, organism-based; set-up: dose 26 mg/kg, route oral; conditions: in vivo
[25] = Half-life in rat at 30 mg/kg, po; assay type: ADME, organism-based; conditions: in vivo
[26] = Half-life in dog at 30 mg/kg, po; assay type: ADME, organism-based, Canis lupus familiaris; conditions: in vivo
786-0 = test: Antitumour activity against human 786-O cells in xenograft model assessed as tumour growth inhibition at 30 mg/kg, qd; assay type: functional, organism-based
[27] = Tmax in rat at 4.9 mg/kg, po; assay type: ADME, organism-based; conditions: in vivo
[28] = Cmax in rat at 93 mg/kg, po; assay type: ADME, organism-based; set-up: dose 93 mg/kg, route oral; conditions: in vivo
[29] = Half-life in rat at 31 mg/kg, po; assay type: ADME, organism-based; conditions: in vivo
[30] = Tmax in mouse at 8.7 mg/kg, po; assay type: ADME, organism-based; conditions: in vivo
[31] = Half-life in mouse at 26 mg/kg, po; assay type: ADME, organism-based; conditions: in vivo
[32] = Tmax in rat at 100 mg/kg, po; assay type: ADME, organism-based; conditions: in vivo
[33] = Cmax in mouse at 8.7 mg/kg, po; assay type: ADME, organism-based; set-up: dose 8.7 mg/kg, route oral; conditions: in vivo
A549 [34] = test: Synergistic antiproliferative activity against human A549 cells harboring KRAS G12S mutant in presence of gemcitabine; assay type: functional, cell-based
[35] = Half-life in rat at 160 mg/kg, po; assay type: ADME, organism-based; conditions: in vivo
[36] = Half-life in mouse at 2.8 mg/kg, iv; assay type: ADME, organism-based; conditions: in vivo
[37] = Volume of distribution at steady state in dog at 0.2 mg/kg, iv; assay type: ADME, organism-based, Canis lupus familiaris; conditions: in vivo, read-out: Vdss
[38] = Tmax in dog at 0.45 mg/kg, po; assay type: ADME, organism-based, Canis lupus familiaris; conditions: in vivo
[39] = Tmax in dog at 30 mg/kg, po; assay type: ADME, organism-based, Canis lupus familiaris; conditions: in vivo
NCI-H1975 = test: Additive antiproliferative activity against human NCI-H1975 cells harboring EGFR […]/T790M mutant in presence of erlotinib; assay type: functional, cell-based
NCI-H460 = test: Antiproliferative activity against human H460 cells; assay type: functional, cell-based
[40] = Half-life in rat at 4.1 mg/kg, po; assay type: ADME, organism-based; conditions: in vivo
NCI-H1650 [41] = test: Additive antiproliferative activity against human NCI-H1650 cells harboring EGFR E746-A750del mutant in presence of erlotinib; assay type: functional, cell-based

Sequence of Phosphatidylinositol 4,5-bisphosphate 3-kinase catalytic subunit alpha isoform (P42336 whole entry, canonical isoform): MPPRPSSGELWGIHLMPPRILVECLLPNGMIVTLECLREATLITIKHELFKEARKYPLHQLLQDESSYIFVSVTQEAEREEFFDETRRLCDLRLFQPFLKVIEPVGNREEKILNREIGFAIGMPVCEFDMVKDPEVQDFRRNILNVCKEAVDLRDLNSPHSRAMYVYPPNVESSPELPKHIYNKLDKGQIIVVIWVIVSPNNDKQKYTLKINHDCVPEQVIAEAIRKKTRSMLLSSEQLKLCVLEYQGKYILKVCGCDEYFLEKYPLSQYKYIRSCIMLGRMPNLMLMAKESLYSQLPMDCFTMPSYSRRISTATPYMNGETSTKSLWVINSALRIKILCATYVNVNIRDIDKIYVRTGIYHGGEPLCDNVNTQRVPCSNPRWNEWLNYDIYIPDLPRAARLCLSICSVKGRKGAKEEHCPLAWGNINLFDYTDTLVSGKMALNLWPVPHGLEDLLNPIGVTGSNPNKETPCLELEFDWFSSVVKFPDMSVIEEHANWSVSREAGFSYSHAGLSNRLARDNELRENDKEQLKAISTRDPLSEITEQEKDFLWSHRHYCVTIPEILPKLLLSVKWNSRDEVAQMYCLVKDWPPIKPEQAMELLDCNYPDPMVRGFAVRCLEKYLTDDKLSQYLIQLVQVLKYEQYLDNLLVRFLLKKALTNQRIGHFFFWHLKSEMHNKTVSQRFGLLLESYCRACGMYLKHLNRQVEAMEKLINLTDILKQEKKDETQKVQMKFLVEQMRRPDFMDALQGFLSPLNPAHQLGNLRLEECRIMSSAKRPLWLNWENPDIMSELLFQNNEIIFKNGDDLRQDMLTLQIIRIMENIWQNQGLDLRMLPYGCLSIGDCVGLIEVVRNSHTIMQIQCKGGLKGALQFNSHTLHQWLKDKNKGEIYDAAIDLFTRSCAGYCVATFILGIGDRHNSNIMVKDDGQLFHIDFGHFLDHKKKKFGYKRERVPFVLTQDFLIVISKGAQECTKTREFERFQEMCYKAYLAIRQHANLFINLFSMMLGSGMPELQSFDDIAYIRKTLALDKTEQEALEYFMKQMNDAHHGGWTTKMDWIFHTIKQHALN

CC(F)(F)CN1C(=O)[C@]2(C)COCCN2c2nc(-c3ccc(NC(=O)NC4CC4)cc3)ncc21
Cmax [1]: 2610 ng/mL
Tmax [2]: 6 h
Activity (DU-145): Active
IC50 [3]: 1260 nM
Activity (MCF7): Active
half-life [4]: 5.4 h
Cmax [5]: 17700 ng/mL
Vd [6]: 1.16 L/kg
Activity (NCI-H1650 [7]): Active
Activity (NCI-H1395 [8]): Active
Cmax [9]: 726 ng/mL
half-life [10]: 10.3 h
Activity (HCT-116): Active
Activity (A549 [11]): Active
Activity (NCI-H1395 [12]): Active
clearance [13]: 8.5 mL/min/kg
Cmax [14]: 250 ng/mL
half-life [15]: 2.3 h
Cmax [16]: 1910 to 2700 ng/mL
Cmax [17]: 873 ng/mL
Tmax [18]: 4 h
Activity (NCI-H292 [19]): Active
Tmax [20]: 14 h
Activity (NCI-H292 [21]): Active
Tmax [22]: 13.3 h
Cmax [23]: 549 ng/mL
Activity (BT-474): Active
Cmax [24]: 11100 ng/mL
half-life [25]: 9 to 13.5 h
half-life [26]: 9.2 h
TGI (786-0): Active
Tmax [27]: 3.3 h
Cmax [28]: 7220 ng/mL
half-life [29]: 8.7 to 18.6 h
Tmax [30]: 4 h
half-life [31]: 9.2 h
Tmax [32]: 4.7 to 14.7 h
Cmax [33]: 5370 ng/mL
Activity (A549 [34]): Active
half-life [35]: 21.4 h
half-life [36]: 2.7 h
Vd [37]: 1.12 L/kg
Tmax [38]: 4 h
Tmax [39]: 7.3 h
Activity (NCI-H1975): Active
Activity (NCI-H460): Active
half-life [40]: 15.2 h
Activity (NCI-H1650 [41]): Active

Reference: ChEMBL document CHEMBL4359925, “Rational discovery of a highly novel and selective mTOR inhibitor” (Bioorg Med Chem Lett, 2019)
